A melting point compilation (Tetko et al.; mined from patent text by program, amines drawn as free bases though some values may be those of a salt)

| SMILES | melting point [°C] |
| --- | --- |
| Cc1ccc(C(=O)Nc2c[nH]nc2C(=O)NCC(F)(F)F)cn1 | 218 to 219 |
| CCOC(=O)c1cnc(SC)nc1Nc1ccc2cn[nH]c2c1 | 212 to 214 |
| COc1ccc(/C=C/C(=O)Nc2ccccc2C(=O)OCC(=O)OC(C)(C)C)cc1OC | 116 to 118 |
| CC(=Cc1ccc2c(c1)S(=O)(=O)c1cc(C=C(C)c3ccccc3)ccc1N2C)c1ccccc1 | 190 to 193 |
| N#CC(Br)(Br)c1ccccn1 | 59 to 61 |
| CC(C)(C)c1cc(-c2ccc(F)cc2)cc(C(C)(C)C)c1O | 97 to 99 |
| COc1ccc2cc([C@H](C)C(=O)OCC(C)(CO)CO)ccc2c1 | 105 |
| CC(C)CC(=O)N[C@H]1N=C(c2ccccc2)c2ccccc2N(C)C1=O | 83 to 102 |
| CC(C)COc1c(-c2ccc(S(N)(=O)=O)cc2)cnn(CC(F)(F)F)c1=O | 170 to 172 |
| CC(=O)OCC1=C(C(=O)OC(C)(C)C)N2C(=O)C(NC(=O)CC3=CSCCS3)C2SC1 (centres undefined) | 80 |
| Cc1ccc(C)n1CCNC(=O)Nc1ccc(C(=O)O)cc1 | 248 to 250 |
| CCOC(=O)CNC(=O)[C@H](Cc1ccc(O)cc1)NC(=O)[C@H](CO)NC(=O)OCc1ccccc1 | 166 to 169 |
| CC#CCOc1cc(-c2ccc(F)cc2F)ncn1 | 63.9 |
| Cc1ccc(-c2ccccc2C(=O)Nc2ccc(C(=O)N3CCc4sc(NC(=N)N)nc4-c4ccccc43)cc2)cc1 | > 230 |
| COc1ncc(F)c2nc(S(=O)(=O)Nc3c(F)cc(Cl)cc3F)nn12 | 203 to 204 |
| CC(=O)OCC(C)C1CCC2C3CC=C4CC(OC(C)=O)CCC4(C)C3CCC12C (centres undefined) | 125 to 127 |
| Cc1occc1C(=O)N(O)C1CCCCC1 | 108 to 110 |
| COc1ccc(CSc2ccncc2)c2c1OC(C)(C)C2 | 109 to 113 |
| CCN(C(=O)Cc1ccc(S(C)(=O)=O)cc1)C1CCN(C(=O)OC(C)(C)C)CC1 | 138 to 140 |
| CCOc1cc(C(CS(C)(=O)=O)N2C(=O)c3cccc(CNC(C)=O)c3C2=O)ccc1OC (centres undefined) | 84 to 86 |

| SMILES | melting point [°C] |
| --- | --- |
| CCOCOCCCOn1cnc2cnc(N)nc21 | 73 to 74 |
| CCOC(=O)C1CCC(=O)NC1=O (centres undefined) | 69 to 74 |
| CCCn1c(=O)c2c(N)n[nH]c2n(Cc2ccccc2)c1=O | 214 to 215 |
| CCN(C(=O)C1CCC1)c1cccc(-c2ccc3nnc(C)n3n2)c1 | 157 to 159 |
| CCC(NC(C)=O)C(=O)O (centres undefined) | 128 to 130 |
| O=S1(=O)N=C(n2ccnc2)Nc2ccc(C(F)(F)F)cc21 | 211 to 214 |
| Cc1cc(C)c(Nc2nc(C)ncc2S(=O)(=O)c2ccc(-c3ccncc3)cc2)c(C)c1 | 232 to 234 |
| CC(C)(C)c1ncc(C(C(=O)O)C(C)(C)C)cn1 (single isomer, unassigned; (+)) | 222 to 224 |
| c1ccc(CN2CCN(c3cccc4cccnc34)CC2)cc1 | 116 to 118 |
| CC(C)(C)OC(=O)/C=C1/CCCCC1n1nc(-c2c(-c3ccccc3)nn3ccccc23)ccc1=O (centres undefined) | 110 to 116 |
| CC#CCC(C)(C)C(=O)/C=C/[C@@H]1[C@H]2CC(=O)O[C@H]2C[C@H]1OC(=O)c1ccccc1 | 73 to 74 |
| Cc1nn(C)c(-c2ccccc2)c1NC(N)=S | 258 to 260 |
| Cc1ccc(-c2cc(C#N)c[nH]2)cc1 | 169 to 171 |
| COc1ccc(Cn2nnnc2C(=O)Nc2cc(C#N)cc(NC(=O)c3nnnn3Cc3ccc(OC)cc3)c2Cl)cc1 | 223 to 225 |
| CCN1CCNC(=O)c2ccc(Nc3ncc(Cl)c(N[C@@H]4CCCC[C@H]4NS(C)(=O)=O)n3)cc21 | 216 to 220 |
| CCCCc1ccc(NC(=O)CCC)c(N=C(NC(=O)OC)SC)c1 | 116 |
| COC1=C(OC)C(=O)C2=C(CCC(CCOc3ccc4ccccc4n3)CC2)C1=O | 134 to 136 |
| COC1(c2cccc(Sc3cc(C)c4c(ccc(=O)n4C)c3)c2)CCOCC1 | 101 to 102 |
| CC(C)(Oc1ccc(CCC(=O)c2ccc(-c3ccccc3)s2)c(Cl)c1Cl)C(=O)O | 179 to 180 |
